Here are results for 15 compounds from patent US20240076299A1, “TUBERCULATIN ANALOGS AS ANTIVIRAL AGENTS” (priority 2020, published 2024).

The test system of series [1] is SARS-CoV-2.
For the next series, the system named is AIV. Nature of the series: microbe, parasite or virus in culture. The class given is cell-based, avian influenza virus (H5N1). The note with it: Influenza A virus, read-out: EC50 (nM) AIV.
For the next series, the system named is HIV. The series can be described thus: microbe, parasite or virus in culture. Format: cell-based, HIV-1.
A short description of series [2]: Cytotoxicity evaluation using the SRB assay. The note with it: human, triplicate.
Series [3] deals with SARS-CoV-2. The series can be described thus: microbe, parasite or virus in culture. The settings on record: Severe acute respiratory syndrome coronavirus 2, 48 h.
The next series concerns VSV. Nature of the series: microbe, parasite or virus in culture. Format: cell-based. The note with it: Vesicular stomatitis virus, read-out: EC50 (nM) VSV.
Series [4] relates to A549 cells. The settings on record: human, 2 days.
The test system of another series is HIV clinical strains. The settings on record: background statement; read-out: EC50 against broad HIV clinical strains; cited from earlier work.
The subject of series [5] is A549 cells. The series can be described thus: Cytotoxicity evaluation using the SRB assay. The note with it: Table 1; inhibition of cell growth of host A549 cells by 50%; triplicate.
Another series is described as follows: in vitro. The note with it: human.
[6] abbreviates: CC50 (nM) A549, Table 2, host A549 cells.
Setting [7] is: CC50 (nM), Table 1, inhibition of cell growth of host A549 cells by 50%.
Where [8] appears, read: read-out: EC50 (2000 nM) SARS-COV-2, % inhibitory effect at 2000 nM against SARS-CoV-2, triplicate.
The mark [9] stands for this setting: read-out: EC50 (2000 nM) SARS-COV-2.

Where two headings read alike, the source gives them in different places.

For the compound `COc1cc2c(O[C@@H]3OC[C@@]4(COC(C)=O)OC(c5ccccc5)O[C@@H]34)c3c(c(-c4ccc5c(c4)OCO5)c2cc1OC)C(=O)OC3` (stereo partly shown) [Compound 20], in the series with SARS-CoV-2 [1], the “activity against SARS-CoV-2 (conclusion)” value is reported as “active molecules”. The EC50 in the series on AIV is 39.9 nM; with HIV (Human immunodeficiency virus 1), 280 nM; with VSV, 53.8 nM. Further, the values for the CC50 at 2 days in series [2] (setting [6]) and in [2] (setting [7]) were 1570 nM and 2580 nM, respectively. In addition, in the series on SARS-CoV-2 [3] (setting [8]), the inhibition at 2 µM was above 80%.
Consider `COc1cc2c(O[C@H]3OC[C@@]4(CN)OC(C)(C)O[C@@H]34)c3c(c(-c4ccc5c(c4)OCO5)c2cc1OC)C(=O)OC3` [Compound 26], for which, in the series on SARS-CoV-2 [1], the “activity against SARS-CoV-2 (conclusion)” value is reported as “active molecules”. Besides, the EC50 with AIV is 0.79 nM; in the series on HIV (Human immunodeficiency virus 1) it was 917 nM; in the series with VSV, 0.58 nM. The CC50 at 2 days came out at 2.66 nM in series [2] (setting [6]) and 4550 nM in [2] (setting [7]). In the series on SARS-CoV-2 [3] (setting [8]), the inhibition at 2 µM was above 80%.
Regarding `COc1cc2c(OC3OCC(O)(CO)C3OC3OCC(O)C(O)C3O)c3c(c(-c4cc5c(cc4O)OCO5)c2cc1OC)C(=O)OC3` (single isomer, unassigned) [Compound 50], the CC50 in the series on A549 cells [4] is above 25000 nM. In the series on HIV, this compound gave an EC50 of 23100 nM.
As for `Cc1cn([C@H]2C[C@H](N=[N+]=[N-])[C@@H](CO)O2)c(=O)[nH]c1=O` [Zidovudine (AZT), Zidovudine], the EC50 in the series with HIV clinical strains is 77 to 95 nM.
In the series with HIV, `COc1cc2c(OC3OCC(O)(COC4OCC(O)C(O)C4O)C3OC3OCC(O)C(O)C3O)c3c(c(-c4cc5c(cc4O)OCO5)c2cc1OC)C(=O)OC3` (single isomer, unassigned) [Compound 52] gave a concentration giving a half-maximal response (EC50) above 25000 nM. Moreover, in the series with A549 cells [5], the CC50 was above 25000 nM.
Turning to `COc1cc2c(O[C@H]3OC[C@@]4(CN=[N+]=[N-])OC(C)(C)O[C@@H]34)c3c(c(-c4ccc5c(c4)OCO5)c2cc1OC)C(=O)OC3` [Compound 25], the “activity against SARS-CoV-2 (conclusion)” value in the series on SARS-CoV-2 [1] is recorded as “active molecules”. The figures for the EC50 with AIV, in the series with HIV (Human immunodeficiency virus 1) and in the series with VSV were 0.72 nM, 441 nM and 4.52 nM, respectively. In addition, the CC50 at 2 days in series [2] (A549 cells, CC50 (nM) A549, Table 2, host A549 cells) turned out to be 648 nM; in [2] (A549 cells, CC50 (nM), Table 1, inhibition of cell growth of host A549 cells by 50%), 1650 nM. Also, the inhibition at 2 µM in the series with SARS-CoV-2 [3] (setting [8]) was above 80%.
In the series with A549 cells [4], `COc1cc2c(OC3OCC(O)(COC4OCC(O)C(O)C4O)C3OC3OCC(O)C(OC4OCC(O)(CO)C4O)C3O)c3c(c(-c4cc5c(cc4O)OCO5)c2cc1OC)C(=O)OC3` (single isomer, unassigned) [Compound 54] registered a CC50 above 25000 nM. In the series on HIV, this compound displayed an EC50 above 25000 nM.
Take `COc1cc2c(OC3OCC(O)(CO)C3O)c3c(c(-c4cc5c(cc4O)OCO5)c2cc1OC)C(=O)OC3` (single isomer, unassigned) [Compound 46]: the CC50 in the series with A549 cells [4] is above 50000 nM. Moreover, the EC50 in the series on HIV came to 48600 nM.
For `COc1cc2c(O[C@H]3OC[C@@]4(COC(=O)c5ccccc5)OC(C)(C)O[C@@H]34)c3c(c(-c4ccc5c(c4)OCO5)c2cc1OC)C(=O)OC3` [Compound 27], the “activity against SARS-CoV-2 (conclusion)” value with SARS-CoV-2 [1] is “active molecules”. The concentration for a half-maximal effect (EC50) with AIV came out at 16.9 nM; in the series on HIV (Human immunodeficiency virus 1), 384 nM; with VSV it was 20.8 nM. The CC50 at 2 days in “in vitro” (CC50 (nM)) came out at 2220 nM; in the series “in vitro” (CC50 (nM) A549), 379 nM. Also, the inhibition at 2 µM in the series with SARS-CoV-2 [3] (setting [9]) was 93%.
Compound `COc1cc2c(OC3OCC(O)(CO)C3O)c3c(c(-c4cc5c(cc4O)OCO5)c2cc1OC)C(=O)OC3` (single isomer, unassigned) [Compound 48] came in with a CC50 with A549 cells [4] above 25000 nM. This compound also came in with an EC50 in the series on HIV above 25000 nM.
As for `COc1cc2c(OC3OCC(O)(CO)C3O)c3c(c(-c4cc5c(cc4O)OCO5)c2cc1OC)C(=O)OC3` (single isomer, unassigned) [Compound 47], the CC50 in the series on A549 cells [4] is above 25000 nM. The EC50 in the series on HIV is above 25000 nM.
Regarding `COc1cc2c(O[C@H]3OC[C@@]4(CNC(C)=O)OC(C)(C)O[C@@H]34)c3c(c(-c4ccc5c(c4)OCO5)c2cc1OC)C(=O)OC3` [Compound 32], the “activity against SARS-CoV-2 (conclusion)” value with SARS-CoV-2 [1] is on record as “active molecules”. This compound returned a concentration giving a half-maximal response (EC50) with HIV (Human immunodeficiency virus 1) of 80.9 nM. Also, the CC50 at 2 days in “in vitro” (CC50 (nM)) turned out to be 441 nM. The inhibition at 2 µM with SARS-CoV-2 [3] (setting [9]) turned out to be 97.4%.
For the compound `COc1cc2c(O[C@@H]3OC[C@@]4(CO)OC(C)(C)O[C@@H]34)c3c(c(-c4ccc5c(c4)OCO5)c2cc1OC)C(=O)OC3` [Compound 9], in the series with SARS-CoV-2 [1], the “activity against SARS-CoV-2 (conclusion)” value is on record as “active molecules”. Also, the EC50 with HIV (Human immunodeficiency virus 1) turned out to be 34.6 nM. The compound further gave a CC50 at 2 days in [2] (setting [7]) of 1180 nM. Further, the inhibition at 2 µM with SARS-CoV-2 [3] (setting [8]) was above 80%.
On to `COc1cc2c(O[C@H]3OC[C@@]4(COC(C)=O)OC(C)(C)O[C@@H]34)c3c(c(-c4ccc5c(c4)OCO5)c2cc1OC)C(=O)OC3` [Compound 12], for which the “activity against SARS-CoV-2 (conclusion)” value in the series with SARS-CoV-2 [1] was “active molecules”. The compound also yielded an EC50 in the series on HIV (Human immunodeficiency virus 1) of 26.9 nM. Further, the CC50 at 2 days in series [2] (setting [7]) is 472 nM. The inhibition at 2 µM in the series on SARS-CoV-2 [3] (setting [8]) is 96.3%.
For `COc1cc2c(O[C@@H]3OC[C@](O)(CO)[C@H]3O)c3c(c(-c4ccc5c(c4)OCO5)c2cc1OC)C(=O)OC3` [Tuberculatin (1), tuberculatin], the EC50 with HIV (read-out: EC50) was 220 nM. The CC50 in the series on A549 cells [5] was 3260 nM.
